Experimental data taken from patent US11873291B2, “Quinoline cGAS antagonist compounds” (ImmuneSensor Therapeutics, Inc., priority 2020, dated 2024).
Where two headings read alike, the source gives them in different places.

How the values were obtained:
[1] = molecular target: T1, recombinant human cGAS (aa147-522) (Homo sapiens, UniProt Q8N884); experiment: In vitro inhibition assay of cGAS activity (ATP consumption, KinaseGlo Max); assay type: biochemical
T1 construct: recombinant human cGAS (aa147-522); His6-SUMO (cleaved yes); made in house; host or cells: E. coli BL21/pLys
Method in brief: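 De-tagged recombinant human cGAS (aa147-522, 1.5 μg/mL) was incubated 20 min at 37 °C with herring testis DNA, 6.6 μM ATP and 0.1 mM GTP in Tris pH 7.5/MgCl2 buffer plus serial compound dilutions. Remaining ATP was read by KinaseGlo Max luminescence, and IC50 was fitted from % ATP consumption versus log concentration.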

[2] = tested on: cGAS activity in Reporter THP1 cell line; experiment: Cellular assay to measure cGAS activity: ISRE-Gaussia luciferase reporter THP1 cells transfected with ISD; assay type: cell-based; conditions: Homo sapiens
Protocol: Cellular assay to measure cGAS activity: Reporter THP1 cell line harboring a gene encoding Gaussia Luciferase under the control of 5 tandem repeats of interferon-stimulated response elements (ISRE) fused to an ISG54 minimal promoter was used to test inhibition of cGAS activity by synthetic compounds in human cells. These cells were plated on 96-well plates at 0.3×10^6/well and incubated with serial dilutions of compounds or DMSO for 5 min, followed by transfection of 2 μg/mL of ISD (Interferon Stimulatory DNA, a 45 bp DNA oligo) or mock transfected using lipofectamine 2000 (Life Technology) method, according to manufacturer's instructions. 16 hours later, 15 μL of the media from each well was transferred to a new plate, 50 μL of solution containing 50 mM Hepes-NaOH, pH 6.5, 50 mM NaCl, 10 mM EDTA, 1 μM of coelenterazine was added to each well and luminescence was measured immediately. Fold increase in luminescence compared to mock transfection was plotted against concentrations of each compound, and IC50 is calculated using Graphpad. To evaluate the specificity of a compound, the same procedure was performed except that cells were transfected with 2 μg/mL poly(I:C) or infected with Sendai Virus (SeV) at 50 Unit/mL, which are known to activate the RIG-I-MAVS pathway. A specific inhibitory compound should inhibit interferon induction by DNA but have minimal effect on poly(I:C) or Sendai virus induced interferon reporter gene expression.
The letter codes for cGAS IC50 include: A (<2 μM); B (2-10 μM); C (>10 μM).

[3] = Table 3, read-out: cGAS Inhibition Results IC50
[4] = THP-1, Table 4, Gaussia luciferase
[5] = THP-1, untitled table after Table 4 (continuation)
[6] = Table 2, read-out: cGAS Inhibition Results IC50

T1 sequence (Q8N884 147-522): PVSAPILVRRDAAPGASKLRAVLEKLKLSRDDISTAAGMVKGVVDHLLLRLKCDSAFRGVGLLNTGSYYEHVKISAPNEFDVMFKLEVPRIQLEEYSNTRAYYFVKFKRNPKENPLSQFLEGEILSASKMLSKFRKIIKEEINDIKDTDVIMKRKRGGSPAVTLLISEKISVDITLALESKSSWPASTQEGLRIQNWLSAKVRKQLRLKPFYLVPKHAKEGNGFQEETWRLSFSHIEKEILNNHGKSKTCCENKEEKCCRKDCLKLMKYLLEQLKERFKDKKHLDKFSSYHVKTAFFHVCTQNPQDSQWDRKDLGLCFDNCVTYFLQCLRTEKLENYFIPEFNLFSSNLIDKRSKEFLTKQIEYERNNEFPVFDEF

SMILES	IC50 [1, 3] [µM]	IC50 [2, 4] [µM]	IC50 [2, 5] [µM]	IC50 [1, 6] [µM]
O=C(O)c1cccc(OC[C@@H]2CCCN2c2cc(-n3ccnc3)c3ccc(Cl)c(Cl)c3n2)c1 [I-735, (S)-3-((1-(7,8-dichloro-4-(1H-imidazol-1-yl)quinolin-2-yl)pyrrolidin-2-yl)methoxy)benzoic acid]	< 2	2 to 10	–	–
O=C(O)CCOC[C@@H]1C[C@H]2C[C@H]2N1c1cc(-n2ccnc2)c2ccc(Cl)c(Cl)c2n1 [I-805]	< 2	–	< 2	–
O=C1CN(c2cc(-n3ccnc3)c3ccc(Cl)c(Cl)c3n2)CCCN1 [I-86]	–	2 to 10	–	< 2
COC(=O)C[C@@H]1[C@@H](O)CCN1c1cc(-n2ccnc2)c2ccc(Cl)c(Cl)c2n1 [I-786, methyl 2-((2R,3S)-1-(7,8-dichloro-4-(1H-imidazol-1-yl)quinolin-2-yl)-3-hydroxypyrrolidin-2-yl)acetate]	< 2	–	2 to 10	–
COC(=O)[C@H]1CCCN1C(=O)C[C@@H]1CCCN1c1cc(-n2ccnc2)c2ccc(Cl)c(Cl)c2n1 [I-532]	2 to 30	2 to 10	–	–
O=C(O)CCOCC1CC(O)CN(c2cc(-n3ccnc3)c3ccc(Cl)c(Cl)c3n2)C1 (stereo not drawn) [I-748]	< 2	> 10	–	–
O=C(O)CCCCCNc1cc(-c2cn[nH]c2)c2cc(Cl)cc(Cl)c2n1 [I-854]	< 2	–	> 10	–
O=C(O)CCOC[C@@H]1C[C@@H](C2CCCCC2)CN1c1cc(-n2ccnc2)c2ccc(Cl)c(Cl)c2n1 [I-803]	< 2	–	< 2	–
COC(=O)CCNC(=O)[C@@H]1[C@@H](O)CCN1c1cc(-n2ccnc2)c2ccc(Cl)c(Cl)c2n1 [I-791, methyl 3-((2S,3S)-1-(7,8-dichloro-4-(1H-imidazol-1-yl)quinolin-2-yl)-3-hydroxypyrrolidine-2-carboxamido)propanoate]	2 to 30	–	> 10	–
O=C(O)CCC[C@@H]1CCCN1c1cc(-n2ccnc2)c2ccc(Cl)c(Cl)c2n1 [I-682]	< 2	< 2	–	–
COc1ccc(-c2cc(-n3ccnc3)c3ccc(Cl)cc3n2)cc1C(=O)O [I-15]	–	> 10	–	< 2
O=C(O)C(O)CC[C@@H]1CCCN1c1cc(-n2ccnc2)c2ccc(Cl)c(Cl)c2n1 (stereo partly drawn) [I-817, 4-((S)-1-(7,8-dichloro-4-(1H-imidazol-1-yl)quinolin-2-yl)pyrrolidin-2-yl)-2-hydroxybutanoic acid]	< 2	–	> 10	–
O=C(O)CC[C@@H]1CCCN1c1cc(-n2ccnc2)c2ccc(Cl)c(Cl)c2n1 [I-679]	< 2	2 to 10	–	–
O=C(O)CCOC[C@@H]1CCCN1c1cc(-c2cn[nH]c2)c2c(Cl)cc(Cl)cc2n1 [I-855]	2 to 30	–	> 10	–
O=C(O)[C@@H]1CCCN1c1cc(-n2ccnc2)c2ccc(Cl)c(Cl)c2n1 [I-428]	–	2 to 10	–	< 2
COC(=O)Cc1cc(F)cc(CNc2cc(-n3ccnc3)c3ccc(Cl)c(Cl)c3n2)c1 [I-890, methyl 2-(3-(((7,8-dichloro-4-(1H-imidazol-1-yl)quinolin-2-yl)amino)methyl)-5-fluorophenyl)acetate]	2 to 30	–	< 2	–
O=C(O)CCOC[C@@H]1C[C@@H](OCc2ccccc2)CN1c1cc(-n2ccnc2)c2ccc(Cl)c(Cl)c2n1 [I-712]	< 2	< 2	–	–
O=C(O)[C@@H]1[C@@H]2C[C@@H]2CN1c1cc(-n2ccnc2)c2ccc(Cl)c(Cl)c2n1 [I-470]	< 2	2 to 10	–	–
O=C(O)COC[C@@H]1CN(c2cc(-c3cn[nH]c3)c3ccc(Cl)c(Cl)c3n2)CCO1 [I-740]	< 2	> 10	–	–
O=C(O)CCOCC1CN(c2cc(-n3ccnc3)c3ccc(Cl)c(Cl)c3n2)C1 [I-689]	< 2	> 10	–	–
O=C(O)CCCC[C@@H]1CCCN1c1cc(-c2cn[nH]c2)c2ccc(Cl)c(Cl)c2n1 [I-684]	< 2	< 2	–	–
O=C(O)C[C@@H]1[C@@H](O)CCN1c1cc(-n2ccnc2)c2ccc(Cl)c(Cl)c2n1 [I-785, 2-((2R,3S)-1-(7,8-dichloro-4-(1H-imidazol-1-yl)quinolin-2-yl)-3-hydroxypyrrolidin-2-yl)acetic acid]	< 2	–	> 10	–
O=C(O)[C@@H]1[C@H]2CC[C@H](C2)N1c1cc(-n2ccnc2)c2ccc(Cl)c(Cl)c2n1 [I-516]	< 2	> 10	–	–
O=C(O)Cc1ccccc1CNc1cc(-n2ccnc2)c2ccc(Cl)c(Cl)c2n1 [I-888]	< 2	–	2 to 10	–

SMILES	IC50 [1, 3] [µM]	IC50 [2, 4] [µM]	IC50 [2, 5] [µM]	IC50 [1, 6] [µM]
O=C(O)CCOCC[C@@H]1CC[C@@H](C(=O)O)N1c1cc(-n2ccnc2)c2ccc(Cl)c(Cl)c2n1 [I-714, (2S,5S)-5-(2-(2-carboxyethoxy)ethyl)-1-(7,8-dichloro-4-(1H-imidazol-1-yl)quinolin-2-yl)pyrrolidine-2-carboxylic acid]	< 2	2 to 10	–	–
O=C(O)C(F)COC[C@@H]1CCCN1c1cc(-n2ccnc2)c2ccc(Cl)c(Cl)c2n1 (stereo partly drawn) [I-716, 3-(((S)-1-(7,8-dichloro-4-(1H-imidazol-1-yl)quinolin-2-yl)pyrrolidin-2-yl)methoxy)-2-fluoropropanoic acid]	< 2	> 10	–	–
O=C(O)CCOC[C@@H]1CCCN(c2cc(-n3ccnc3)c3ccc(Cl)c(Cl)c3n2)C1 [I-750]	< 2	< 2	–	–
O=C(O)CCOC[C@@H]1CCCN(c2cc(-c3cn[nH]c3)c3ccc(Cl)c(Cl)c3n2)C1 [I-747]	< 2	< 2	–	–
COC(=O)C(F)COC[C@@H]1CCCN1c1cc(-n2ccnc2)c2ccc(Cl)c(Cl)c2n1 (stereo partly drawn) [I-700]	< 2	2 to 10	–	–
O=C(COC[C@@H]1CCCN1c1cc(-n2ccnc2)c2ccc(Cl)c(Cl)c2n1)NO [I-761]	< 2	–	> 10	–
COC(=O)[C@@H]1C[C@H](C)CN1c1cc(-n2ccnc2)c2ccc(Cl)c(Cl)c2n1 [I-586]	2 to 30	< 2	–	–
O=C(O)CCOC[C@@H]1[C@@H](O)CCN1c1cc(-n2ccnc2)c2ccc(Cl)c(Cl)c2n1 [I-698]	< 2	> 10	–	–
CN(CCOc1ccccc1C(=O)O)c1cc(-n2ccnc2)c2ccc(Cl)c(Cl)c2n1 [I-842]	< 2	–	2 to 10	–
O=C(O)CCCCCNc1cc(-n2ccnc2)c2ccc(Cl)c(Cl)c2n1 [I-690]	< 2	< 2	–	–
COC(=O)/C=C/C[C@@H]1CCCN1c1cc(-n2ccnc2)c2ccc(Cl)c(Cl)c2n1 [I-686]	2 to 30	< 2	–	–
CN(CCCCCC(=O)O)c1cc(-n2ccnc2)c2ccc(Cl)c(Cl)c2n1 [I-691]	< 2	< 2	–	–
COC(=O)COC[C@@H]1CCCN1c1cc(-n2ccnc2)c2ccc(Cl)c(Cl)c2n1 [I-667, methyl (S)-2-((1-(7,8-dichloro-4-(1H-imidazol-1-yl)quinolin-2-yl)pyrrolidin-2-yl)methoxy)acetate]	< 2	< 2	–	–
CC(C)OC(=O)[C@@H]1CCCN1c1cc(-n2ccnc2)c2ccc(Cl)c(Cl)c2n1 [I-595]	2 to 30	2 to 10	–	–
COC(=O)[C@@H]1[C@@H]2[C@H](CN1c1cc(-n3ccnc3)c3ccc(Cl)c(Cl)c3n1)C2(C)C [I-471]	2 to 30	2 to 10	–	–
O=C(O)CCOCC1CC(F)CN(c2cc(-n3ccnc3)c3ccc(Cl)c(Cl)c3n2)C1 (stereo not drawn) [I-749]	< 2	< 2	–	–
CCN(CCOCCC(=O)O)c1cc(-n2ccnc2)c2ccc(Cl)c(Cl)c2n1 [I-832]	< 2	–	< 2	–
COC(=O)[C@@H]1CC2C[C@@H]2N1c1cc(-n2ccnc2)c2ccc(Cl)c(Cl)c2n1 (stereo partly drawn) [I-576]	< 2	< 2	–	–
O=C(O)CCOC[C@@H]1[C@H]2C[C@H]2CN1c1cc(-n2ccnc2)c2ccc(Cl)c(Cl)c2n1 [I-710]	< 2	2 to 10	–	–
COC(=O)CC[C@@H]1CCCN1c1cc(-n2ccnc2)c2ccc(Cl)c(Cl)c2n1 [I-680]	2 to 30	2 to 10	–	–
CCOC(=O)CNC(=O)C[C@@H]1[C@@H](O)CCN1c1cc(-n2ccnc2)c2ccc(Cl)c(Cl)c2n1 [I-787, ethyl (2-((2R,3S)-1-(7,8-dichloro-4-(1H-imidazol-1-yl)quinolin-2-yl)-3-hydroxypyrrolidin-2-yl)acetyl)glycinate]	< 2	–	2 to 10	–
COC(=O)[C@@H]1CCCN1c1cc(-n2ccnc2)c2ccc(Cl)c(Cl)c2n1 [I-593]	2 to 30	2 to 10	–	–
CC(OCCC(=O)O)c1cccc(-c2cc(-n3ccnc3)c3ccc(Cl)c(Cl)c3n2)c1 (stereo not drawn) [I-880]	< 2	–	2 to 10	–
COC(=O)/C=C/[C@@H]1CCCN1c1cc(-n2ccnc2)c2ccc(Cl)c(Cl)c2n1 [I-687]	2 to 30	> 10	–	–
